Measured values from a melting point compilation (Tetko et al.; mined from patent text by program, amines drawn as free bases though some values may be those of a salt).

melting point [°C]	SMILES
54 to 55	CC1(C)CCCC(C)(C)N1Oc1ccc(C(F)(F)F)cc1[N+](=O)[O-]
53 to 55	COC(=O)c1ccc(OCC2CO2)cc1O (stereo not given)
265	Cc1cccc2c1C(=O)C(=S)N2
204 to 207	CC(=O)Oc1c(C)c(C)c2c(c1C)C(=O)CC(O)(COc1ccc([N+](=O)[O-])cc1)O2 (stereo not given)
232 to 234	Oc1ccc2c(-c3nc4cc(O)ccc4o3)cccc2c1
150 to 152	CN1c2ccc(Cl)cc2C(c2ccccc2Cl)=Nc2cccnc21
223 to 225	CNC(=S)C1=CC2(CCOCC2)Oc2ccc([N+](=O)[O-])cc21
265 to 266	CC1(C)CC(=O)C(C)(C)c2cc(/C=C/c3ccc(C(=O)O)cc3)c(Cn3cccn3)cc21
141 to 142	CCCn1nc(C(N)=O)cc1CC(C)C
167 to 168	Oc1ccc2c(c1)CCCC(c1ccccc1)=C2c1ccc(OCCCCCSCCCC(F)(F)C(F)(F)F)cc1
227 to 228	COc1nc2cc(Cl)c(F)c(CS(N)(=O)=O)c2nc1OC
50 to 52	C=C(C)CO[C@H]1[C@H](C)OC(=O)[C@@H](NC(=O)c2nccc(OC)c2OCc2ccccc2)COC(=O)[C@@H]1Cc1ccccc1
184 to 186	Fc1ccc(C2CC(n3cncn3)c3ccccc3N2)cc1 (stereo not given)
315 to 317	C=Cc1ccc(C(=O)O)cc1C12CC3CC(CC(C3)C1)C2
134 to 136	Nc1ccc(NNC(=O)c2ccccc2)cc1
181 to 183	CCN(C)c1nc2cc(NC(=O)OC(C)(C)C)ccn2n1
149 to 152	CC(NC(=O)OC(C)(C)C)C(=O)Nc1cc(OCC(F)(F)F)ccc1-c1cccnc1 (stereo not given)
193 to 196	O=C1CC(c2cccc3ccccc23)c2ccc(O)cc2O1 (stereo not given)
297 to 299	COc1ccc(C2C3=C(COC3=O)Nc3ccc4cc[nH]c4c32)cc1O (stereo not given)
128	COC(=S)c1cc(F)c(-c2ccccc2)nc1Nc1ccc(F)cc1F
89 to 90	CCC(C(=O)N(C)C)n1cc(C(C)C)c(-c2ccccc2)n1 (stereo not given)
73 to 98	Nc1nc2ccccc2c2c1ncn2CCCCNC(=O)COc1ccc(C(=O)c2ccccc2)cc1
105 to 106	CCc1ccc(Nc2c(F)c(F)cc(F)c2F)c(CC(=O)N(C)C)c1
173 to 175	O=C(O)Cc1ccc(Cc2nc3c(F)c(F)cc(F)c3s2)cc1
69 to 71	CCc1cc(C(=O)OC(C)C)c2cc(C(C)C)cccc1-2

melting point [°C]	SMILES
217 to 218	COc1ccccc1Oc1c(NS(=O)(=O)c2c(C)noc2C)nc(-c2ncccn2)nc1OCCOC(=O)Nc1ccccn1
148 to 150	Cc1nnc(-c2cc(Cl)c(Cl)c(Cl)n2)s1
32	CCC[C@H]1CC[C@H](c2ccc(OCC)c(C=O)c2)CC1
186	COc1cc(Nc2nccc(Nc3ccccc3)n2)cc(OC)c1OC
223	CCN1CCc2ccc(Nc3ncc(Cl)c(Nc4cc(Cl)ccc4C(=O)NC)n3)cc2CC1
176 to 178	CC(=O)NC[C@H]1CN(c2cc(F)c(N3CCC(Cc4nnn[nH]4)CC3)c(F)c2)C(=O)O1
161 to 162	O=C(CCCN1CCC(NC(=O)c2ccccc2)CC1)c1ccc(F)cc1
60 to 62	O=C(NC1CCN(Cc2ccccc2)CC1)c1cccc(OCc2ccc3ccccc3n2)c1
125 to 127	CONC(=O)c1nsc2ccc(-n3c(=O)cc(C(F)(F)F)n(C)c3=O)cc12
66 to 68	CCOC(=O)Cc1cccc(N)n1
56 to 57	CCc1ncnc(Cl)c1I
148 to 149	CC(C)c1cccc(C(C)C)c1NC(=O)N(Cc1ccccc1)[C@H]1CC[C@@H](c2ccccc2)CC1
138 to 139	COC(=O)c1cc(Cl)c(N)cc1O
147 to 149	COc1ccc(N(C)c2nc(C)nc3oc4c(c23)CCCC4)cc1
175 to 177	CC(C)(C)OC(=O)Nc1nc(C(=CC(C)(C)C(=O)OCc2ccccc2)C(=O)O)cs1
> 300	Cc1cc(C)c(-n2ccc3c(=O)[nH][nH]c(=O)c32)c(C)c1
200	O=C1CC(O)c2c1cc[nH]c2=O (stereo not given)
94 to 97	CCC(=O)NC(=O)CCCCBr
> 250	COc1ccc2c(Cc3c(Cl)cncc3Cl)nnc(-n3ccnc3)c2c1
223 to 224	Cc1ccc(-c2nccc3c(CC(=O)O)cccc23)cc1
183 to 184	CC(C)n1nc(-c2sc(NC(=O)c3cccc(F)c3)nc2-c2ccccc2)ccc1=O
202 to 204	COc1cc2c(cc1OCC(=O)O)C1Cc3c(Cl)cc(OC)c(OCC(=O)O)c3CN1CC2 (stereo not given)
110 to 112	CC(C#N)c1ccc(O)c(N)c1 (stereo not given)
64 to 66	CC(C)COC(=O)[C@H](CC(=O)OCc1ccccc1)NC(=O)CCCCNC(=O)OC(C)(C)C
154 to 157	Cc1cc(SCc2ccnc3oc(-c4ccc(C(F)(F)F)cc4)nc23)ccc1OCC(=O)O

melting point [°C]	SMILES
250 to 252	Cc1ccc(Cl)c(Nc2ccccc2-c2n[nH]c(=S)s2)c1Cl
216	Cc1c(C(=O)Nc2nncs2)nnn1Cc1ccc(Cl)c(Cl)c1
124 to 125	C#CCN1CC(=O)NC1=O
138 to 140	COc1ccc(N2C(=O)O[C@H](COC(=O)c3ccc([N+](=O)[O-])cc3)[C@@H]2C)cc1
202 to 204	CC1NC(=O)NN=C1c1ccc(S)cc1 (stereo not given)
206 to 209	O=C(CNC(=O)c1ccccc1C(=O)O)Nc1ccc(C(=O)C[N+](=O)[O-])c(Cl)c1
125 to 126	COc1nc(OC)c(I)c(C(=O)O)n1
149 to 151	O=C(O)CCCC(=O)c1cc2c(=O)c3ccccc3ccc2s1
215 to 216	Cc1nccn1-c1nc(-c2ccc(Cl)cc2)c(CCC(N)=O)o1
240 to 241	NC(=O)NC1CCC(=O)c2ccsc21 (stereo not given)
140 to 147	Cc1ccc2c(Cl)ccnc2c1[N+](=O)[O-]
132 to 134	CCCCc1ccc(NC(=O)CCc2ccccc2)c(=O)n1CC(=O)O
112	CS(=O)(=O)c1ccc(-c2sc(NCc3ccccc3)nc2-c2ccc(F)cc2)cc1
120 to 121	CCCCCC(=O)NC[C@H](CC(C)C)NC(=O)[C@H]1O[C@@H]1C(=O)OCC
199 to 202	COc1cc(OC)nc(N2CCN(Cc3ccc(C(C)(C)NC(C)=O)cc3)CC2)n1
113 to 119	CCCNC(=O)c1c(N)cc(Cl)cc1Cl
134 to 136	CN(CCCC(C(N)=O)(c1ccccc1)c1ccccc1)CCc1ccccn1
105 to 107	COC(=O)c1ccc(OCCCCCOc2ccc(C#N)cc2)c(OC)c1
116 to 118	CC(C)Oc1cc([N+](=O)[O-])c(F)cc1C#N
140 to 141	CN1CN(c2ccccc2)c2ncccc2C1=O
85 to 90	COc1cc2ncc(OC3CCC(OC)CC3)nc2cc1OC (stereo not given)
99 to 100	CCn1cc(CC(=O)O)c(OCCCc2cn(-c3ccc(C(F)(F)F)cn3)nc2C(C)C)n1
174 to 177	O=C(Nc1ccc2ccccc2c1C(=O)O)OCc1cc2cc(-c3ccccc3)ccc2o1
85 to 88	COc1ccc2oc(C(=O)c3cccnc3N3CCOCC3)cc2c1
299 to 301	O=c1[nH]c2ncc(-c3ccc(O)cc3)nc2n1C1CCCC1

melting point [°C]	SMILES
263 to 266	O=C(NN1CCN(C(=O)Nc2ccccc2)CC1)c1ccc(F)cc1
211 to 212	CCOc1nc2cccc(C(=O)OC)c2n1Cc1ccc(-c2ccccc2-c2nc(=O)s[nH]2)cc1
85 to 90	COc1ccc(-c2ccncc2)c(C)n1
> 300	O=C(O)c1ccc(C2=NCCO2)cc1
116	CC1(C)CCC(C)(C)c2cc(C(=O)c3ccccc3C(=O)N(CCO)CCO)ccc21
241 to 243	CC(=O)N1CCC(F)(Cc2c3c(nn2C)c(N)nc2ccccc23)CC1
38 to 40	CCCCCCCCCCCCc1nnn(CC(=O)OCC)n1
156 to 160	Cc1cc(C)n(-c2cnc(CN)c(Nc3ccc(Cl)cc3)n2)n1
146 to 149	O=c1oc(-c2ccccc2)cc(O)c1SCCOc1ccccc1
81 to 82	CNC(=O)/C(=N/OC)c1ccccc1COc1cccc(OC)n1
169 to 170	NCC1CCc2[nH]c3ccc(Cl)c(Cl)c3c2C1 (stereo not given)
179 to 180	O=C(O)c1ccc(C(F)F)c2ccccc12
168	Cc1cccc(NC(=O)NCC(=O)N2[C@@H](C(=O)OC(C)(C)C)C[C@H](CO)[C@H]2c2ccccc2)c1 (racemic)
315 to 320	N#Cc1c(N)oc2ccccc2c1=O
84 to 86	COCCOc1ccc(CC(C)CO)c(Oc2ncc(C(F)(F)F)cc2Cl)c1 (stereo not given)
88 to 90	c1ccc2c(c1)C1CC2(CC2CN(CC3CC3)CCO2)c2ccccc21 (stereo not given)
154	Cn1nc(Br)c([N+](=O)[O-])c1Br
108 to 110	CCOC(=O)CCCCCN1C(=O)c2cccc3cc(N)cc(c23)C1=O
129 to 130	CN1CCC(Oc2ccccc2N)(c2ccccc2)CC1
174 to 176	C=Cc1ccc(NN2C(=O)c3ccccc3C2=O)cc1
124 to 126	Cc1cc(S(=O)(=O)NCc2ccccc2)c2c(C)ccc(C(C)C)cc1-2
154	Cc1sc(-n2cccc2C=O)c(C#N)c1C
56 to 57	CCCCCCCC1CCC(CC(C#N)c2ccc(Br)cc2)CC1 (stereo not given)

SMILES	melting point [°C]
CN1C(=O)C(F)N=C(c2ccccc2Cl)c2ccc(Cl)cc21 (stereo not given)	204 to 205
CCC(CN1CCCC1)C(C#N)(c1ccccc1)c1ccccc1 (stereo not given)	90
O=C(CI)CCc1ccccc1	44 to 45
CCCN(C(=O)CBr)c1ccc([N+](=O)[O-])cc1C(=O)c1ccccc1	122
CCOC(=O)NC(=O)N1CC1C#N (stereo not given)	108 to 110
CCCCCn1c2ccc(C(=S)N3CCCCC3)cc2c2ccc(OC)cc21	116 to 118
CN(C)C(=O)Oc1cccc2c1CC[C@H]1[C@H]2CCN1CCC1CCCCC1	110 to 112
